What was measured:
Assay in all cases: relative viability (nuclei count vs DMSO), 5 days (fraction); higher = more cells survive
AZ3146 + Phenformin = compound: CN1CCC(CC1)OC2=CC(=C(C=C2)NC3=NC=C4C(=N3)N(C(=O)N4C)C5CCCC5)OC [AZ3146] + N=C(N)NC(=N)NCCc1ccccc1 [Phenformin] (partner 250 µM)
In short: (§1)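 One day after seeding in 1536-well plates, lung cancer cell lines were dosed by pin tool. Dosing was either single-drug or a fixed anchor-drug dose plus five library-drug doses (not always all listed) in √10 steps. After 5 days, nuclei were stained in one fix-and-stain step and counted on 4× images, and relative viability is the nuclei count of treated wells over that of vehicle wells, given as the median of duplicate plates.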

GSK-J4 + Vorinostat = compound: CCOC(=O)CCNc1cc(N2CCc3ccccc3CC2)nc(-c2ccccn2)n1 [GSK-J4] + O=C(CCCCCCC(=O)Nc1ccccc1)NO [Vorinostat] (partner 1 µM)
In short: as §1

AZ3146 + AZD7762 = compound: CN1CCC(CC1)OC2=CC(=C(C=C2)NC3=NC=C4C(=N3)N(C(=O)N4C)C5CCCC5)OC [AZ3146] + NC(=O)Nc1cc(-c2cccc(F)c2)sc1C(=O)N[C@H]1CCCNC1 [AZD7762] (partner 0.2 µM)
In short: as §1

GSK-J4 + Bortezomib = compound: CCOC(=O)CCNc1cc(N2CCc3ccccc3CC2)nc(-c2ccccn2)n1 [GSK-J4] + CC(C)C[C@H](NC(=O)[C@H](Cc1ccccc1)NC(=O)c1cnccn1)B(O)O [Bortezomib] (partner 0.002 µM)
In short: as §1

| Cell Line | relative viability (AZ3146 + Phenformin; first compound 0.08 µM) | relative viability (AZ3146 + Phenformin; first compound 0.253 µM) | relative viability (AZ3146 + Phenformin; first compound 0.8 µM) | relative viability (AZ3146 + Phenformin; first compound 2.53 µM) | relative viability (AZ3146 + Phenformin; first compound 8 µM) | relative viability (GSK-J4 + Vorinostat; first compound 0.5 µM) | relative viability (GSK-J4 + Vorinostat; first compound 1.581 µM) | relative viability (GSK-J4 + Vorinostat; first compound 5 µM) | relative viability (GSK-J4 + Vorinostat; first compound 15.81 µM) | relative viability (GSK-J4 + Vorinostat; first compound 50 µM) | relative viability (AZ3146 + AZD7762; first compound 0.08 µM) | relative viability (AZ3146 + AZD7762; first compound 0.253 µM) | relative viability (AZ3146 + AZD7762; first compound 0.8 µM) | relative viability (AZ3146 + AZD7762; first compound 2.53 µM) | relative viability (AZ3146 + AZD7762; first compound 8 µM) | relative viability (GSK-J4 + Bortezomib; first compound 0.5 µM) | relative viability (GSK-J4 + Bortezomib; first compound 1.581 µM) | relative viability (GSK-J4 + Bortezomib; first compound 5 µM) | relative viability (GSK-J4 + Bortezomib; first compound 15.81 µM) | relative viability (GSK-J4 + Bortezomib; first compound 50 µM) |
| --- | --- | --- | --- | --- | --- | --- | --- | --- | --- | --- | --- | --- | --- | --- | --- | --- | --- | --- | --- | --- |
| NCI-H1755 | 0.548 | 0.577 | 0.57 | 0.601 | 0.569 | 0.675 | 0.638 | 0.694 | 0.577 | 0.536 | 0.502 | 0.482 | 0.455 | 0.445 | 0.519 | 0.937 | 0.813 | 0.649 | 0.886 | 0.905 |
| LOU-NH91 | 0.736 | 0.565 | 0.768 | 0.761 | 0.76 | 1.02 | 0.868 | 0.668 | 0.841 | 0.902 | 0.778 | 0.755 | 0.802 | 0.775 | 0.743 | 0.525 | 0.497 | 0.426 | 0.467 | 0.621 |
| CAL-12T | 0.674 | 0.575 | 0.568 | 0.6 | 0.405 | 0.723 | 0.693 | 0.874 | 0.689 | 0.682 | 0.656 | 0.653 | 0.678 | 0.604 | 0.611 | 1.06 | 0.834 | 0.785 | 1.01 | 0.941 |
| NCI-H1734 | 0.393 | 0.373 | 0.406 | 0.426 | 0.376 | 0.749 | 0.788 | 0.609 | 0.645 | 0.5 | 0.262 | 0.535 | 0.545 | 0.563 | 0.337 | 0.795 | 0.878 | 0.738 | 0.725 | 0.783 |
| LCLC-97TM1 | 0.386 | 0.411 | 0.326 | 0.433 | 0.448 | 0.684 | 0.442 | 0.681 | 0.507 | 0.578 | 0.311 | 0.339 | 0.262 | 0.381 | 0.273 | 0.981 |  | 0.393 | 0.449 | 0.526 |
| BEN |  | 0.291 | 0.248 | 0.268 | 0.242 | 0.559 | 0.46 | 0.511 | 0.571 | 0.505 |  | 0.608 | 0.668 | 0.589 | 0.68 | 0.898 | 0.719 |  | 0.857 | 0.735 |
| ChaGo-K-1 | 0.581 | 0.452 | 0.474 | 0.426 | 0.333 | 0.785 |  | 0.619 | 0.673 | 0.668 | 0.739 | 0.91 | 0.865 | 0.833 | 0.733 | 1.21 |  | 0.913 | 0.972 | 0.931 |
| NCI-H2405 | 0.4 | 0.309 | 0.304 | 0.373 | 0.366 | 0.973 | 0.925 |  | 0.923 | 0.974 | 0.838 | 0.771 | 0.702 | 0.589 | 0.618 | 0.992 | 0.724 |  | 0.968 | 1.04 |
| HCC-44 | 0.118 | 0.124 | 0.0902 | 0.364 | 0.273 | 1.01 | 1.09 | 1.09 | 1.14 | 1.16 | 1.02 | 0.978 | 1.12 | 1 | 0.979 | 0.842 | 0.86 | 0.916 | 0.892 | 0.934 |
| EPLC-272H |  | 0.247 | 0.288 | 0.345 | 0.317 | 0.461 | 0.37 | 0.599 | 0.335 | 0.284 | 0.136 | 0.199 | 0.175 | 0.24 | 0.237 | 0.864 |  | 1.01 | 0.851 | 0.936 |
| NCI-H322M | 0.82 | 0.811 | 0.715 | 0.833 | 0.585 | 0.877 | 0.964 | 1.11 | 0.84 | 0.928 | 0.595 | 0.529 | 0.581 | 0.825 | 0.506 | 1.3 | 1.03 | 1.67 | 1.11 | 1.02 |
| H3255 | 0.352 | 0.419 | 0.313 | 0.377 | 0.338 | 0.716 |  | 0.656 | 0.742 | 0.742 | 0.863 | 0.837 | 0.768 | 0.825 | 0.841 | 0.858 | 0.632 | 0.655 | 0.579 | 0.603 |
| EKVX | 0.248 | 0.196 | 0.234 | 0.25 | 0.231 | 0.686 |  | 0.808 |  | 0.524 | 0.506 | 0.773 | 0.541 | 0.787 | 0.824 | 0.981 | 0.961 | 1.28 | 1.01 | 0.963 |
| NCI-H1993 | 0.513 | 0.509 | 0.499 | 0.557 | 0.45 | 1.15 | 0.708 | 0.804 | 0.601 | 0.409 | 0.662 | 0.695 | 0.812 | 1.01 | 0.581 | 1.18 | 1.24 | 1.19 | 0.878 | 0.812 |
| NCI-H650 | 0.386 | 0.44 | 0.445 | 0.526 | 0.461 | 0.358 | 0.342 |  | 0.319 | 0.266 | 0.915 | 0.652 | 0.952 | 1.06 | 1.21 | 0.76 | 0.525 | 0.495 | 0.663 | 0.663 |
